Reference: patent US20240050463A1, “THERAPEUTIC COMPOSITIONS AND METHODS FOR TREATING HEPATITIS B” (ARBUTUS BIOPHARMA CORPORATION, priority 2016, published 2024)
Where a name gives a salt, the structure may show the parent alone. Read-outs that look alike come from different tables or passages of the source.

Experiments:
[1] = tested on: HBsAg secretion in HepG2.2.15 cells; test: Inhibition of HBsAg in HepG2.2.15 cells (CLIA), checkerboard, MacSynergy II; format: cell-based, HBV (human hepatoblastoma HepG2 cells); conditions: for Additive % Inhibition (HBsAg) versus negative control: Trial 3
Experimental: In vitro combination studies were conducted using the method of Prichard and Shipman (Prichard M N, and Shipman C Jr., Antiviral Research, 1990, 14(4-5), 181-205; and Prichard M N, et. al., MacSynergy II). The HepG2.2.15 cell culture system is a cell line derived from human hepatoblastoma HepG2 cells that have been stably transfected with the adw2− subtype HBV genome as previously explained in Sells et al. (Proc. Natl. Acad. Sci. U. S. A, 1987. Vol 84:1005-1009). HepG2.2.15 cells secrete Dane-like viral particles, produce HBV DNA, and also produce the viral proteins, hepatitis B e antigen (HBeAg) and hepatitis B surface antigen (HBsAg).
To test the compound combinations, HepG2.2.15 (30,000 cells/well) were plated in 96 well tissue-culture treated microtiter plates in RPMI+L-Glutamine medium supplemented with 1% penicillin-streptomycin, 20 μg/mL geneticin (G418), 10% fetal bovine serum, and incubated in a humidified incubator at 37° C. and 5% CO2 overnight. […] […] The microtiter cell plates were incubated for a duration of 6 days in a humidified incubator at 37° C. and 5% CO2.
Untreated positive control samples (0.5% DMSO in media) were included on each plate in multiple wells. Following a 6 day-incubation, media was removed from treated cells for use in an HBsAg chemiluminescence immunoassay (CLIA) (Autobio Diagnostics, Cat No. CL0310-2). An HBsAg standard curve was generated to verify that the levels of HBsAg quantification were within the detection limits of the assay. The remaining inhibitor-treated cells were assessed for cytotoxicity by determination of the intracellular adenosine triphosphate (ATP) using a Cell-Titer Glo reagent (Promega) as per manufacturers instructions and by microscopic analysis of the cells throughout the duration of inhibitor treatment. Cell viability was calculated as a percentage of the untreated positive control wells.
The plates were read using an EnVision multimode plate reader (PerkinElmer Model 2104). […] The RLU data from the single compound treated cells were analyzed using XL-Fit module in Microsoft Excel to determine EC50 values using a 4-parameter curve fitting algorithm.

[2] = tested on: D type HBV in primary human hepatocytes (PHH); test: HBV DNA in culture supernatants of HBV-infected primary human hepatocytes (qPCR), MacSynergy; format: cell-based; conditions: for AVERAGE % INHIBITION: HBV DNA, COMPOUND 25 0.00 nM; for inhibition at 0.00012 µM / inhibition at 0.00037 µM / inhibition at 0.00333 µM / inhibition at 0.01 µM: Hepatitis B virus, Hepatocyte; for inhibition at 0.00012 µM: TDF 0.12 nM alone; for inhibition at 0.00037 µM: TDF 0.37 nM alone; for inhibition at 0.00333 µM: TDF 3.33 nM alone; for inhibition at 0.01 µM: TDF 10.00 nM alone
Experimental: (§1) The mouse liver perfusion was applied to isolate PHHs. The isolated hepatocytes were further purified by Percoll. The cells were resuspended with culture media and seeded into the 96-well plates (6×10^4 cell/well) or 48-well plates (1.2×10^5 cell/well). The PHHs were infected with a D type HBV one day post seeding (day 1).
(§2) On day 2, the test compounds were diluted and added into the cell culture plates. The culture media containing the compounds were refreshed every other day. The cell culture supernatants were collected on day 8 for the HBV DNA and antigen determinations.
(§3) The compounds were tested at 7 concentrations, 3-fold dilution, in triplicate.
(§4) Two compounds were tested at 5×5 matrix, in triplicate plates.
DNA in the culture supernatants harvested on days 8 were isolated with QIAamp 96 DNA Blood Kit (Qiagen-51161). For each sample, 100 μl of the culture supernatants was used to extract DNA. The DNA was eluted with 100 μl, 150 μl or 180 μl of AE. HBV DNA in the culture supernatants was quantified by qPCR. The combination effect was analyzed by the MacSynergy software. The primers are described below.

[3] = tested on: HBsAg, D type HBV in primary human hepatocytes (PHH); test: microbe, parasite or virus in culture; format: cell-based; conditions: Hepatitis B virus, Hepatocyte; for inhibition at 0.00012 µM: TDF 0.12 nM alone; for inhibition at 0.00037 µM: TDF 0.37 nM alone
Experimental: as §1, §2, §3, §4
(§5) HBsAg/HBeAg in the culture supernatants harvested on days 8 were measured by the HBsAg/HBeAg ELISA kit (Autobio) according to the manual. The samples were diluted with PBS to get the signal in the range of the standard curve. The inhibition rates were calculated with the formula below. The combination effect was analyzed by the MacSynergy software.
% Inh. HBsAg=[1−HBsAg quantity of sample/HBV quantity of DMSO control]×100.

[4] = tested on: HBeAg, D type HBV in primary human hepatocytes (PHH); test: microbe, parasite or virus in culture; format: cell-based; conditions: Hepatitis B virus, Hepatocyte, read-out: Inhibitor B EC50, HBeAg endpoint; determined in an earlier separate experiment
Experimental: as §1, §2, §3, §4, §5
% Inh. HBeAg=[1−HBeAg quantity of sample/HBV quantity of DMSO control]×100.

[5] = tested on: HBV rcDNA in HepDE19 cells; test: Inhibition of rcDNA in HepDE19 cells (bDNA assay), checkerboard, MacSynergy II; format: cell-based, HBV (human hepatoma cell line); parameters: key to ADDITIVE INHIBITION: % inhibition of rcDNA production; conditions: Compound 3 0 μM
Experimental: In vitro combination studies were conducted using the method of Prichard and Shipman (Prichard M N, and Shipman C Jr., Antiviral Research, 1990, 14(4-5), 181-205; and Prichard M N, et. al., MacSynergy II). HepDE19 cell culture system is a HepG2 (human hepatocarcinoma) derived cell line that supports HBV DNA replication and cccDNA formation in a tetracycline (Tet)-regulated manner and produces HBV rcDNA and a detectable reporter molecule dependent on the production and maintenance of cccDNA (Guo et al 2007. J. Virol 81:12472-12484). HepDE19 (50,000 cells/well) were plated in 96 well collagen-coated tissue-culture treated microtiter plates in DMEM/F12 medium supplemented with 10% fetal bovine serum, 1% penicillin-streptomycin and 1 μg/ml tetracycline and incubated in a humidified incubator at 37° C. and 5% CO2 overnight. Next day, the cells were switched to fresh medium without tetracycline and incubated for 4 hrs at 37° C. and 5% CO2. […] The two inhibitors were tested both singly as well as in combinations in a checkerboard fashion such that each concentration of inhibitor A was combined with each concentration of inhibitor B to determine their combination effects on inhibition of rcDNA production. Following a 7 day-incubation of cells with compound combinations, the level of rcDNA present in the inhibitor-treated wells was measured using a Quantigene 2.0 bDNA assay kit (Affymetrix, Santa Clara, CA) with HBV specific custom probe set and manufacturers instructions. […] The RLU data from the single compound treated cells were analyzed using XL-Fit module in Microsoft Excel to determine EC50 values using a 4-parameter curve fitting algorithm. Concurrently, the effect of compounds on cell viability was assessed using replicate plates, plated at a density of 5,000 cells/well and incubated for 4 days, to determine the ATP content as a measure of cell viability using the cell-titer glo reagent (CTG; Promega Corporation, Madison, WI) as per manufacturer's instructions.
In vitro combination studies were conducted using the method of Prichard and Shipman (Prichard M N, Shipman C, Jr., Antiviral Res, 14, 181-205 (1990)). The HepDE19 cell line was developed as described in Guo et al. (Guo et al., J Virol, 81, 12472-12484 (2007)). It is a human hepatoma cell line stably transfected with the HBV genome, and which can express HBV pregenomic RNA and support HBV rcDNA (relaxed circular DNA) synthesis in a tetracycline-regulated manner. HepDE19 cells were plated in 96 well tissue-culture treated microtiter plates in DMEM/F12 medium supplemented with 10% fetal bovine serum+1% penicillin-streptomycin without tetracycline and incubated in a humidified incubator at 37° C. and 5% CO2 overnight. […] The two inhibitors were tested both singly as well as in combinations in a checkerboard fashion such that each concentration of inhibitor A was combined with each concentration of inhibitor B to determine their combination effects on inhibition of rcDNA production. Following a 48 hour-incubation, the level of rcDNA present in the inhibitor-treated wells was measured using a bDNA assay (Affymetrix) with HBV specific custom probe set and manufacturers instructions. […] Concurrently, the effect of inhibitor combinations on cell viability was assessed using replicate plates that were used to determine the ATP content as a measure of cell viability using the Cell-TiterGlo reagent (Promega) as per manufacturer's instructions.
In vitro combination studies were conducted using the method of Prichard and Shipman (1990) (Prichard M N, Shipman C, Jr. 1990. A three-dimensional model to analyze drug-drug interactions. Antiviral Res 14:181-205 AND Prichard M N. 1992. MacSynergy II, University of Michigan).

[6] = read-out: Additive inhibition, HBV DNA
[7] = read-out: Average % inhibition, HBV DNA
[8] = read-out: Additive inhibition, HBsAg
[9] = read-out: Average % inhibition, HBsAg

COCCCOc1cc2c(cc1OC)-c1cc(=O)c(C(=O)O)cn1[C@H](C(C)C)C2 [Compound 5]
Additive % Inhibition (HBsAg) versus negative control ([1]; Compound 5 0.0001 μM alone): 69.99%
Additive % Inhibition (HBsAg) versus negative control ([1]; Compound 5 0.000316 μM alone): 82.39%
Additive % Inhibition (HBsAg) versus negative control ([1]; Compound 5 0.001 μM alone): 89.01%
Additive % Inhibition (HBsAg) versus negative control ([1]; Compound 5 0.00316 μM alone): 90.26%
Additive % Inhibition (HBsAg) versus negative control ([1]; Compound 5 0.1 μM alone): 86.26%
Additive % Inhibition (HBsAg) versus negative control ([1]; Compound 5 1.0E−05 μM alone): 46.36%
Additive % Inhibition (HBsAg) versus negative control ([1]; Compound 5 1.00E−06 μM alone): 22.68%
Additive % Inhibition (HBsAg) versus negative control ([1]; Compound 5 3.16E−06 μM alone): 34.18%
Additive % Inhibition (HBsAg) versus negative control ([1]; Compound 5 3.17E−05 μM alone): 56.34%
EC50 ([1]; Hepatitis B virus, HepG2.2.15, Trial 2, HBsAg by CLIA, read-out: Compound 5 EC50): 5 nM

O=C(Nc1ccc(F)c(F)c1)c1cc(S(=O)(=O)NC2CCCC2)ccc1F [Compound 22]
AVERAGE % INHIBITION ([2]; COMPOUND 22 61.73 nM): −11.75%
AVERAGE % INHIBITION ([2]; COMPOUND 22 185.19 nM): −9.12%
AVERAGE % INHIBITION ([2]; COMPOUND 22 555.56 nM): −12.7%
AVERAGE % INHIBITION ([2]; COMPOUND 22 1666.67 nM): 17.94%
AVERAGE % INHIBITION ([2]; COMPOUND 22 5000.00 nM): 63.06%

CNC(=O)N[C@H]1CCOc2c(C(=O)Nc3ccc(F)c(F)c3)ccc(F)c21 [Compound 23]
EC50 ([3]; read-out: Inhibitor B EC50): 4.36 nM
EC50 [4]: 4.53 nM

CCOC(=O)C1=C(CN2CCOCC2)NC(c2nccs2)=NC1c1ccc(F)cc1Br (stereo not drawn) [GLS4]
ADDITIVE INHIBITION ([5]; GLS-4 0.007813 μM): −1.17
ADDITIVE INHIBITION ([5]; GLS-4 0.01563 μM): −5.82
ADDITIVE INHIBITION ([5]; GLS-4 0.03125 μM): 7.03
ADDITIVE INHIBITION ([5]; GLS-4 0.0625 μM): 38.95
ADDITIVE INHIBITION ([5]; GLS-4 0.125 μM): 77.82
ADDITIVE INHIBITION ([5]; GLS-4 0.25 μM): 94.65
ADDITIVE INHIBITION ([5]; GLS-4 0.5 μM): 97.48
ADDITIVE INHIBITION ([5]; GLS-4 1 μM): 98.51
ADDITIVE INHIBITION ([5]; GLS-4 2 μM): 98.22

CC(C)OC(=O)OCOP(=O)(CO[C@H](C)Cn1cnc2c(N)ncnc21)OCOC(=O)OC(C)C [TDF, tenofovir disoproxil fumarate]
inhibition at 0.00012 µM [2, 6]: -1.16%
inhibition at 0.00012 µM [2, 7]: -1.16%
inhibition at 0.00037 µM [2, 6]: -6.24%
inhibition at 0.00037 µM [2, 7]: -6.24%
inhibition at 0.00333 µM [2, 6]: 3.15%
inhibition at 0.00333 µM [2, 7]: 3.15%
inhibition at 0.01 µM [2, 6]: -15.4%
inhibition at 0.01 µM [2, 7]: -15.4%
inhibition at 0.00012 µM [3, 8]: -3.31%
inhibition at 0.00012 µM [3, 9]: -3.31%
inhibition at 0.00037 µM [3, 8]: -3.32%
inhibition at 0.00037 µM [3, 9]: -3.32%
inhibition at 0.00333 µM ([3]; read-out: Additive inhibition, HBsAg, TDF 3.33 nM alone): -1.28%
inhibition at 0.01 µM ([3]; read-out: Additive inhibition, HBsAg, TDF 10.00 nM alone): -6.65%
inhibition at 0.00333 µM ([3]; read-out: Average % inhibition, HBsAg, TDF 3.33 nM alone): -1.28%
inhibition at 0.01 µM ([3]; read-out: Average % inhibition, HBsAg, TDF 10.00 nM alone): -6.65%
